According to ChEMBL document CHEMBL1201862, “PubChem BioAssay data set” (2004):
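Grown in 96-well plates, cells were treated for 48 hours with each compound at five concentrations. Insufficient inhibition: endpoint recorded as highest concentration tested. GI50 marks 50% less growth.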 Activity calls are given as the source filed them. Rule as the data show it: active = GI50 up to about 1.1 µM and inactive = higher. Non-standard residues stand in square brackets, D forms with d. Residues, ends and D or L forms follow the SMILES beside them. *: point of attachment. Ac5c = NC1(C(=O)O)CCCC1; Boc = CC(C)(C)OC(=O)*; tBu = CC(C)(C)*

Assays:
Test in all cases: NCI anticancer screen, dose series, 48 h
[1] = tested on: OVCAR-4
[2] = tested on: SNB-19
[3] = tested on: KM12
[4] = tested on: LOX IMVI
[5] = tested on: UO-31
[6] = tested on: HL-60
[7] = tested on: HT-29
[8] = tested on: PC-3
[9] = tested on: SK-MEL-2
[10] = tested on: SF-295
[11] = tested on: HOP-62
[12] = tested on: Hs-578T
[13] = tested on: CCRF-CEM
[14] = tested on: SN12C
[15] = tested on: HCT-116
[16] = tested on: A498
[17] = tested on: NCI-H226
[18] = tested on: SK-OV-3
[19] = tested on: COLO 205

| Structure (SMILES) | GI50 [1] | GI50 [2] | GI50 [3] | GI50 [4] | GI50 [5] | GI50 [6] | GI50 [7] | GI50 [8] | GI50 [9] | GI50 [10] | GI50 [11] | GI50 [12] | GI50 [13] | GI50 [14] | GI50 [15] | GI50 [16] | GI50 [17] | GI50 [18] | GI50 [19] |
| --- | --- | --- | --- | --- | --- | --- | --- | --- | --- | --- | --- | --- | --- | --- | --- | --- | --- | --- | --- |
| O=C(O)c1ccc(C2SCc3nc4ccccc4n32)cc1 (stereo not drawn) | > 100 µM (inactive) | > 100 µM (inactive) | > 100 µM (inactive) | > 10 µM (inactive) | > 100 µM (inactive) | > 100 µM (inactive) | > 100 µM (inactive) | > 100 µM (inactive) | > 100 µM (inactive) | > 100 µM (inactive) | > 100 µM (inactive) | > 100 µM (inactive) | > 100 µM (inactive) | > 100 µM (inactive) | > 100 µM (inactive) | > 100 µM (inactive) | > 100 µM (inactive) |  |  |
| CC(C)OC(=O)NNc1cc(Cl)ccc1Cl |  | > 100 µM (inactive) | 65.3 µM (inactive) | 67.3 µM (inactive) | > 100 µM (inactive) | 21.7 µM (inactive) | > 100 µM (inactive) | 56.8 µM (inactive) | 65.8 µM (inactive) | 62.8 µM (inactive) | > 100 µM (inactive) | 81.5 µM (inactive) | 59.7 µM (inactive) | > 100 µM (inactive) | 73.3 µM (inactive) | 24.3 µM (inactive) |  | > 100 µM (inactive) | > 100 µM (inactive) |
| Cc1nn(-c2ccccn2)c2c1C(SC#N)=C(C=O)CC2 |  | 19.6 µM (inactive) | 16.7 µM (inactive) | 15.7 µM (inactive) | 14.6 µM (inactive) | 3.55 µM (inactive) | 16.1 µM (inactive) | 19.7 µM (inactive) | 16.9 µM (inactive) | 30.3 µM (inactive) | 9.38 µM (inactive) | 33.7 µM (inactive) | 2.12 µM (inactive) | 18.5 µM (inactive) | 16 µM (inactive) | 2.29 µM (inactive) |  | 19.3 µM (inactive) | 10.5 µM (inactive) |
| O=C(c1cc(Cl)ccc1Cl)N1CCN(c2ccc(Cl)c(Cl)c2)CC1 | 51.5 µM (inactive) | > 10 µM (inactive) | 16 µM (inactive) | 26.4 µM (inactive) | 14.8 µM (inactive) | 76.9 µM (inactive) | 22.8 µM (inactive) | 42.8 µM (inactive) |  | 45.4 µM (inactive) | 67.5 µM (inactive) | 45.9 µM (inactive) | 41.6 µM (inactive) | 33.3 µM (inactive) | 21 µM (inactive) | 11.5 µM (inactive) | 13.6 µM (inactive) |  |  |
| CC(OC(C)(C)C)C(NC(=O)C(CCCCNC(=O)OC(C)(C)C)NC(=O)C(Cc1c[nH]c2ccccc12)NC(=O)C(N)Cc1ccccc1)C(=O)NC(Cc1ccccc1)C(=O)NC1(C(=O)O)CCCC1 (stereo not drawn) (H-FWK(Boc)T(tBu)F[Ac5c]-OH; configuration not given here) | > 100 µM (inactive) | > 100 µM (inactive) | > 100 µM (inactive) | > 100 µM (inactive) | > 100 µM (inactive) |  | > 100 µM (inactive) | > 100 µM (inactive) | > 100 µM (inactive) | > 100 µM (inactive) | > 100 µM (inactive) | > 100 µM (inactive) | > 100 µM (inactive) | > 100 µM (inactive) | > 100 µM (inactive) | > 100 µM (inactive) | > 100 µM (inactive) | > 100 µM (inactive) | > 100 µM (inactive) |
| c1ccc(CSSSCc2ccccc2)cc1 [DIBENZYL TRISULFIDE] | 2.3 µM (inactive) | 15.3 µM (inactive) | 2.67 µM (inactive) | 0.621 µM (active) | 6.55 µM (inactive) | 0.378 µM (active) | 1 µM (active) | 1.32 µM (inactive) | 1.08 µM (active) | 6.58 µM (inactive) | 0.964 µM (active) | 8.32 µM (inactive) | 0.0269 µM (active) | 0.912 µM (active) | 0.272 µM (active) | 18.6 µM (inactive) |  | 3.61 µM (inactive) | 1.87 µM (inactive) |
